# Measurements: ChEMBL document CHEMBL5579824, “Novel Hsp90-Targeting PROTACs: Enhanced synergy with cisplatin in combination therapy of cervical cancer” (Eur J Med Chem, 2024)
# The source made the active and inactive calls. The calls are words filed in the database; no cut-off is given here.
# Assays:
# [1] = target: Serine/threonine-protein kinase mTOR (Homo sapiens) (UniProt P42345); assay: Inhibition of mTOR phosphorylation in human SiHa cells incubated for 10 hrs by Western blot analysis; assay type: cell-based; settings: dose 0.01-1 µM
# [2] = target: Serine/threonine-protein kinase AKT (Homo sapiens) (UniProt P31751+Q9Y243+P31749); assay: Inhibition of AKT phosphorylation in human SiHa cells incubated for 10 hrs by Western blot analysis; assay type: cell-based; settings: dose 0.01-1 µM
# Sequence of Serine/threonine-protein kinase AKT (Homo sapiens) (P31749 whole entry, looked up): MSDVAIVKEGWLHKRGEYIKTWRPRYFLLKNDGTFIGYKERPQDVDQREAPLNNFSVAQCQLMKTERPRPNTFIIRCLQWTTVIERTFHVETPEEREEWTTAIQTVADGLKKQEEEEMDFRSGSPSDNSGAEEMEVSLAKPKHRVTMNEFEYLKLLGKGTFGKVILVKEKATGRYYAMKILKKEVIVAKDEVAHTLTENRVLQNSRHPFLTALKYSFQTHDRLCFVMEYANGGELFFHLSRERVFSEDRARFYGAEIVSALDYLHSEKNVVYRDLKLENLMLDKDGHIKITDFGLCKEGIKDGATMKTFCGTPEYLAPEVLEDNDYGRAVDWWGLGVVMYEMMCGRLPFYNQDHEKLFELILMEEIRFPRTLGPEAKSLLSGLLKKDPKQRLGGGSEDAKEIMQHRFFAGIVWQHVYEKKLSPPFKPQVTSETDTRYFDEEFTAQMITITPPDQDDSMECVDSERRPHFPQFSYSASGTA
# Sequence of Serine/threonine-protein kinase AKT (Homo sapiens) (P31751 whole entry, looked up): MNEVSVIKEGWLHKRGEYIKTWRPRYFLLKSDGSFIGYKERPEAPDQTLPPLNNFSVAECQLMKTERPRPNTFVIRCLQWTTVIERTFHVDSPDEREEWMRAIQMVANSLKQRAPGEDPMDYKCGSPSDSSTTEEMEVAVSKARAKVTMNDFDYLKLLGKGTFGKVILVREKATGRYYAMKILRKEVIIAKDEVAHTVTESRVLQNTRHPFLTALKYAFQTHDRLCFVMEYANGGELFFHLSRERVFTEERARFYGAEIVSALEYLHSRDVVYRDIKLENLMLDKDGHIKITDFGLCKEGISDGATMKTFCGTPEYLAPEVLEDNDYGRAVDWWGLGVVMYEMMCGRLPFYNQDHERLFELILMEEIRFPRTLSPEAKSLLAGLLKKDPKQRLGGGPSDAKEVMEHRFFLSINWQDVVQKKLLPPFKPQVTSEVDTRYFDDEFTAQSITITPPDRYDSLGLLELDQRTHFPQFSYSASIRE
# Sequence of Serine/threonine-protein kinase AKT (Homo sapiens) (Q9Y243 whole entry, looked up): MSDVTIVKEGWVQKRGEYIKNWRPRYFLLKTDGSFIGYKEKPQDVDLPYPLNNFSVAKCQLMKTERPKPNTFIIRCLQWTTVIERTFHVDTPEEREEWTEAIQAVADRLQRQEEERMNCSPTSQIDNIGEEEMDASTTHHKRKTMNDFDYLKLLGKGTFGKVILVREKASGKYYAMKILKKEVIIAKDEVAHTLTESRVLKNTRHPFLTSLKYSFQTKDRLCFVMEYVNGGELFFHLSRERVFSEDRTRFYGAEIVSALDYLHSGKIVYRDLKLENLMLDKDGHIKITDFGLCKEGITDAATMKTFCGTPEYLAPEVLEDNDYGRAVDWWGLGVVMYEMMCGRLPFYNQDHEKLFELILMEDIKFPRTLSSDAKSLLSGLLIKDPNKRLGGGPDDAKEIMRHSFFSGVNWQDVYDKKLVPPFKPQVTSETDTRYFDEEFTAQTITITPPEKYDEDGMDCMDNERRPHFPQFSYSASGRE
# [3] = system: SiHa; assay: Antiproliferative activity against human SiHa cells assessed as reduction in cell viability incubated for 72 hrs by CCK-8 assay; assay type: functional, cell-based
# [4] = target: T1, Protein cereblon/Heat shock protein HSP 90-alpha/Heat shock protein HSP 90-beta (Homo sapiens) (UniProt P07900+P08238+Q96SW2); assay: Protac activity at CRBN/Hsp90 in human SiHa cells assessed as induction of Hsp90 degradation at 1 uM incubated for 10 hrs by Western blot analysis; assay type: cell-based
# [5] = target: T1, Protein cereblon/Heat shock protein HSP 90-alpha/Heat shock protein HSP 90-beta (Homo sapiens); assay: Protac activity at CRBN/Hsp90 in human SiHa cells assessed as induction of Hsp90 degradation (causing hook effect) at > 0.075 uM incubated for 10 hrs by Western blot analysis; assay type: cell-based
# [6] = target: T1, Protein cereblon/Heat shock protein HSP 90-alpha/Heat shock protein HSP 90-beta (Homo sapiens); assay: Protac activity at CRBN/Hsp90 in human Ca-Ski cells assessed as induction of Hsp90 degradation (causing hook effect) at > 0.075 uM incubated for 10 hrs by Western blot analysis; assay type: cell-based
# [7] = target: T1, Protein cereblon/Heat shock protein HSP 90-alpha/Heat shock protein HSP 90-beta (Homo sapiens); assay: Protac activity at CRBN/Hsp90 in human SiHa cells assessed as induction of Hsp90 degradation at 0.05 uM incubated for 2 hrs in presence of SNX-5422 by Western blot analysis; assay type: cell-based
# [8] = system: SiHa; assay: Induction of apoptosis in human SiHa cells assessed as viable cells at 10 uM incubated after 48 hrs by annexin V-FITC/PI staining based flow cytometry (reference value: 90.4 %); assay type: functional; settings: read-out: Activity
# [9] = system: SiHa; assay: Induction of apoptosis in human SiHa cells assessed as late apoptotic cells at 10 uM incubated after 48 hrs by annexin V-FITC/PI staining based flow cytometry (reference value: 6.93 %); assay type: functional
# [10] = system: SiHa; assay: Induction of apoptosis in human SiHa cells assessed as viable cells at 1 uM incubated after 48 hrs by annexin V-FITC/PI staining based flow cytometry (reference value: 90.4 %); assay type: functional; settings: read-out: Activity
# [11] = system: SiHa; assay: Induction of apoptosis in human SiHa cells assessed as early apoptotic cells at 1 uM incubated after 48 hrs by annexin V-FITC/PI staining based flow cytometry (reference value: 2.05 %); assay type: functional
# [12] = system: SiHa; assay: Induction of apoptosis in human SiHa cells assessed as late apoptotic cells at 0.05 uM incubated after 48 hrs by annexin V-FITC/PI staining based flow cytometry (reference value: 6.93 %); assay type: functional
# [13] = system: SiHa; assay: Induction of cell cycle arrest in human SiHa cells assessed as accumulation of cells at S pahse at 10 uM incubated after 48 hrs by PI staining based flow cytometry (reference value: 8.51 %); assay type: functional
# [14] = system: SiHa; assay: Induction of cell cycle arrest in human SiHa cells assessed as accumulation of cells at G1 pahse at 1 uM incubated after 48 hrs by PI staining based flow cytometry (reference value: 83.90 %); assay type: functional
# [15] = system: SiHa; assay: Induction of cell cycle arrest in human SiHa cells assessed as accumulation of cells at G2/M pahse at 1 uM incubated after 48 hrs by PI staining based flow cytometry (reference value: 7.37 %); assay type: functional
# [16] = system: HeLa; assay: Antiproliferative activity against human HeLa cells assessed as reduction in cell viability incubated for 72 hrs by CCK-8 assay; assay type: functional, cell-based
# [17] = system: C-33-A; assay: Antiproliferative activity against human C-33-A cells assessed as reduction in cell viability incubated for 72 hrs by CCK-8 assay; assay type: functional, cell-based
# [18] = system: SiHa; assay: Synergistic antiproliferative activity against human SiHa cells assessed as combination index at 0.05 uM incubated for 72 hrs in presence of 0.32 uM cisplatin by CCK-8 assay; assay type: functional
# [19] = system: SiHa; assay: Synergistic antiproliferative activity against human SiHa cells assessed as combination index at 0.1 uM incubated for 72 hrs in presence of 31.62 uM cisplatin by CCK-8 assay; assay type: functional
# [20] = system: SiHa; assay: Synergistic antiproliferative activity against human SiHa cells assessed as combination index at 0.1 uM incubated for 72 hrs in presence of 1 uM cisplatin by CCK-8 assay; assay type: functional
# [21] = system: SiHa; assay: Synergistic antiproliferative activity against human SiHa cells assessed as combination index at 0.5 uM incubated for 72 hrs in presence of 10 uM cisplatin by CCK-8 assay; assay type: functional
# [22] = system: SiHa; assay: Synergistic antiproliferative activity against human SiHa cells assessed as combination index at 0.5 uM incubated for 72 hrs in presence of 0.32 uM cisplatin by CCK-8 assay; assay type: functional
# [23] = system: SiHa; assay: Synergistic antiproliferative activity against human SiHa cells assessed as combination index at 0.75 uM incubated for 72 hrs in presence of 31.62 uM cisplatin by CCK-8 assay; assay type: functional
# [24] = system: SiHa; assay: Synergistic antiproliferative activity against human SiHa cells assessed as combination index at 0.75 uM incubated for 72 hrs in presence of 10 uM cisplatin by CCK-8 assay; assay type: functional
# [25] = system: SiHa; assay: Synergistic antiproliferative activity against human SiHa cells assessed as combination index at 0.75 uM incubated for 72 hrs in presence of 3.16 uM cisplatin by CCK-8 assay; assay type: functional
# [26] = system: SiHa; assay: Synergistic antiproliferative activity against human SiHa cells assessed as combination index at 0.75 uM incubated for 72 hrs in presence of 0.01 uM cisplatin by CCK-8 assay; assay type: functional
# [27] = system: SiHa; assay: Synergistic antiproliferative activity against human SiHa cells assessed as combination index at 1 uM incubated for 72 hrs in presence of 31.62 uM cisplatin by CCK-8 assay; assay type: functional
# [28] = system: SiHa; assay: Synergistic antiproliferative activity against human SiHa cells assessed as combination index at 1 uM incubated for 72 hrs in presence of 1 uM cisplatin by CCK-8 assay; assay type: functional
# [29] = system: SiHa; assay: Synergistic antiproliferative activity against human SiHa cells assessed as combination index at 5 uM incubated for 72 hrs in presence of 31.62 uM cisplatin by CCK-8 assay; assay type: functional
# [30] = system: SiHa; assay: Synergistic antiproliferative activity against human SiHa cells assessed as combination index at 5 uM incubated for 72 hrs in presence of 3.16 uM cisplatin by CCK-8 assay; assay type: functional
# [31] = system: SiHa; assay: Synergistic antiproliferative activity against human SiHa cells assessed as combination index at 5 uM incubated for 72 hrs in presence of 0.1 uM cisplatin by CCK-8 assay; assay type: functional
# [32] = system: SiHa; assay: Synergistic antiproliferative activity against human SiHa cells assessed as combination index at 10 uM incubated for 72 hrs in presence of 0.03 uM cisplatin by CCK-8 assay; assay type: functional
# [33] = system: SiHa; assay: Synergistic antitumor activity against human SiHa cells xenografted in BALB/c nude mouse assessed as tumor growth inhibition at 2 mg/kg, ip co-treated with cisplatin separately for every two days; assay type: functional, organism-based
# [34] = system: SiHa; assay: Synergistic antitumor activity against human SiHa cells xenografted in BALB/c nude mouse assessed as reduction in Ki67 protein expression at 2 mg/kg, ip co-treated with cisplatin separately for every two days by immunohistochemical analysis; assay type: functional, organism-based
# [35] = target: T1, Protein cereblon/Heat shock protein HSP 90-alpha/Heat shock protein HSP 90-beta (Homo sapiens); assay: Protac activity at CRBN/Hsp90 in human SiHa cells assessed as decrease in AKT protein expression level incubated for 10 hrs by Western blot analysis; assay type: cell-based; settings: dose 0.01-1 µM
smiles,measurement,setting,value
CC1(C)CC(=O)c2c(C(F)(F)F)nn(-c3ccc(C(N)=O)c(N[C@H]4CC[C@H](OC(=O)CNC(=O)CCCCCCCNc5cccc6c5CN(C5CCC(=O)NC5=O)C6=O)CC4)c3)c2C1 (stereo not given in full),inhibition,[1],Active
same,inhibition,[2],Active
same,IC50,[3],50 nM
same,Activity,[4],Active
same,Activity,[5],inactive
same,Activity,[6],inactive
same,Activity,[7],inactive
same,viability at 10 µM,[8],51.9%
same,Activity,[9],29.96%
same,viability at 1 µM,[10],59%
same,Activity,[11],16.5%
same,Activity,[12],7.4%
same,Activity,[13],13.6%
same,Activity,[14],59.32%
same,Activity,[15],27.12%
same,IC50,[16],80 nM
same,IC50,[17],70 nM
same,CI,[18],0.38
same,CI,[19],0.24
same,CI,[20],0.8
same,CI,[21],0.17
same,CI,[22],0.12
same,CI,[23],0.32
same,CI,[24],0.21
same,CI,[25],0.17
same,CI,[26],0.2
same,CI,[27],0.27
same,CI,[28],0.18
same,CI,[29],0.53
same,CI,[30],0.65
same,CI,[31],1.01
same,CI,[32],2.11
same,TGI,[33],Active
same,Activity,[34],Active
same,Activity,[35],Dose-Dependent Effect
